Like-named read-outs stand apart in the source and are kept apart here.
How the values were obtained:
[1] = tested on: Jurkat, human leukemic T cell line; test: Anti-proliferation MTT / CCK-8 assay; format: cell-based; conditions: 72 h; for IC50: Homo sapiens, Jurkat
Experimental: (§1) These cells were purchased from the National Collection of Authenticated Cell Cultures (Shanghai, China).
(§2) The concentration of the cell suspension was adjusted to the appropriate concentration with fresh medium (the number of cells was about 30–40% of the bottom area of the well plate). 150 μL (about 1 × 10^4 cells) of prepared cell suspension containing different concentrations of NBU-2 were added to a 96-microtiter plate, and 3 replicate wells were set up for each concentration. If the cells were adherent, the cells were first allowed to grow overnight in 96 microtiter plates until the cells were adherent, and then the old medium was replaced with the drug-containing medium. The plates were incubated in a 5% CO2 cell incubator at 37 °C for 72 h. Then, 15 μL of MTT solution was added to each well, 100 μL of 10% SDS solution (pH = 2) was added after 4 h, and the plate was incubated at 37 °C with 5% CO2 overnight to fully dissolve the crystals.
(§3) The cells (about 1 × 10^4 cells) were treated with different concentrations of NBU-2 and DMSO control for different times (24 h, 48 h, 72 h), with 3 replicate wells for each concentration. Incubate at 37 °C in a 5% CO2 cell culture incubator. After a predetermined time, 10 μL of CCK-8 was added to each well and incubated for 2 h. The absorbance was measured at the excitation wavelength of 450 nm.

[2] = tested on: HUVEC, human umbilical vein endothelial cells; test: Toxicity on normal cells (MTT / CCK-8 assay); format: cell-based
Experimental: as §1, §2, §3

[3] = tested on: Hep G2, human hepatoma cell lines; test: Anti-proliferation MTT / CCK-8 assay; format: cell-based; conditions: HepG2, read-out: IC50 proliferation HepG2, heading: IC50 proliferation HepG2, 72 h, mean ± SEM of three independent assays
Text: K562, human erythroleukemia line; HL-60, human leukemic cell line; Jurkat, human leukemic T cell line; CCRF-CEM, human leukemic lymphoblasts; U937, human histiocytic lymphoma; HCT-116, human colorectal cancer cell line; A549, human lung cancer cell line; Hep G2, human hepatoma cell lines; MDA-MB-231, MCF-7, human breast cancer cell line; 4T1, mouse breast cancer cell line; PC12, pheochromocytoma of the rat adrenal medulla; HUVEC, human umbilical vein endothelial cells. These cells were purchased from the National Collection of Authenticated Cell Cultures (Shanghai, China).
as §2, with “crystals. Finally, the absorbance value of each well was measured at 570 and 655 nm.” for “crystals.”
as §3

Jurkat cells = test: Annexin V-FITC/PI apoptosis assay (flow cytometry); format: cell-based, human; conditions: 48 h
Experimental: Apoptosis was assessed using an Annexin V-FITC Apoptosis Detection Kit according to the manufacturer’s instructions. Briefly, cells were double-stained with fluorescein isothiocyanate (FITC)-conjugated Annexin V and propidium iodide (PI). Jurkat cells were cultured to the appropriate density. Three sets of concentration gradients, namely 0.2 μM, 1 μM, and 5 μM, were established while DMSO was used as the control. The Jurkat cells were cultured for 48 h. Centrifuge at 1000× g for 5 min to precipitate the cells. We collected the cells, added the staining solution according to the instructions of the Annexin V-FITC Apoptosis Detection Kit to complete the staining, and immediately tested the cells on Flow cytometry.

IC50 ([1]; read-out: IC50 against Jurkat cells): 0.86 µM
IC50 ([1]; read-out: IC50 proliferation Jurkat, heading: IC50 proliferation Jurkat, mean ± SEM of three independent assays): 0.86 ± 0.13 µM
IC50 [3]: 7.55 ± 0.46 µM
SMILES: Cc1cccc2c(=O)c3c(NCCCCCC(=O)NO)ccc([N+](=O)[O-])c3[nH]c12 [NBU-2, N-hydroxy-6-((5-methyl-4-nitro-9-oxo-9,10-dihydroacridin-1-yl)amino)hexanamide]
Inhibitory effect on Jurkat cells over time ([1]; CCK-8, 24 h, 48 h, various concentrations): concentration and time-dependent
IC50 ([2]; 72 h, read-out: IC50 anti-proliferative activity against HUVECs): 35.6 µM
IC50 ([2]; read-out: IC50 proliferation HUVEC (normal cells), heading: IC50 proliferation HUVEC, 72 h, mean ± SEM of three independent assays): 35.6 ± 7.3 µM
Percentage of cells in early apoptotic stage (Q3) (Jurkat cells; 0.2 μM): 11.5%
Percentage of cells in early apoptotic stage (Q3) (Jurkat cells; 1 μM): 16.1%
Percentage of cells in early apoptotic stage (Q3) (Jurkat cells; 5 μM): 84.7%

Source: article PMC12651750 (Cells, 2025)
